# Experimental data reported in patent publication US9833497B2, “Human originated EGF domain proteins and use of the same” (CHENGDU SOURCEBIO LIMITED-LIABILITY COMPANY, priority 2013, dated 2017).
# What was measured:
# Type in all cases: cell-based
# [1] = system: E. coli DH5α; test: Antibacterial activity: MIC and growth curve against E. coli DH5α in 96-well plate; settings: minimal inhibitory concentration against E. coli DH5α; 96-well plate, 5×10^5 CFU/mL, 37° C., judged after 8 h
# Procedure, shortened: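 MIC taken as lowest protein level with no bacterial growth, tracked by A600 every 30 min during 37 °C, 175 rpm culture. Two-fold protein series 50-12.5 μg/mL final, triplicate wells, against 5×10^5 CFU/mL of LB-washed mid-log cells.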
# [2] = system: E. coli BL21; test: MIC against Gram-negative bacteria: E. coli BL21; settings: 5×10^5 CFU/mL
# Procedure, shortened: (§1)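 Broth microdilution, LB medium, final inoculum 5×10^5 CFU/mL from McFarland 0.5 cultures. Recombinant human EGF domain proteins tested in two-fold steps, n=3. MIC: lowest concentration, no growth.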
# [3] = system: Pseudomonas aeruginosa; test: MIC against Gram-negative bacteria: Pseudomonas aeruginosa; settings: 5×10^5 CFU/mL; for MIC: P. aeruginosa
# Procedure, shortened: as §1
# [4] = system: Klebsiella pneumonia; test: MIC against Gram-negative bacteria: Klebsiella pneumonia; settings: 5×10^5 CFU/mL; for MIC: K. pneumonia
# Procedure, shortened: as §1
# [5] = system: Enterobacter cloacae; test: MIC against Gram-negative bacteria: Enterobacter cloacae; settings: 5×10^5 CFU/mL; for MIC: E. cloacae
# Procedure, shortened: as §1
# [6] = system: Aeromonas hydrophila; test: MIC against Gram-negative bacteria: Aeromonas hydrophila; settings: 5×10^5 CFU/mL; for MIC: A. hydrophila
# Procedure, shortened: as §1
# [7] = system: Citrobacter diversus; test: MIC against Gram-negative bacteria: Citrobacter diversus; settings: 5×10^5 CFU/mL; for MIC: C. diversus
# Procedure, shortened: as §1
# [8] = system: Moraxella catarrhalis; test: MIC against Gram-negative bacteria: Moraxella catarrhalis; settings: 5×10^5 CFU/mL; for MIC: M. catarrhalis
# Procedure, shortened: as §1
# [9] = system: Proteus mirabilis; test: MIC against Gram-negative bacteria: Proteus mirabilis; settings: 5×10^5 CFU/mL; for MIC: P. mirabilis
# Procedure, shortened: as §1
# [10] = system: Proteus vulgaris; test: MIC against Gram-negative bacteria: Proteus vulgaris; settings: 5×10^5 CFU/mL; for MIC: P. vulgaris
# Procedure, shortened: as §1
# [11] = system: Serratia marcescens; test: MIC against Gram-negative bacteria: Serratia marcescens; settings: 5×10^5 CFU/mL; for MIC: S. marcescens
# Procedure, shortened: as §1
# [12] = 10 h cultivation at 37° C., two-fold serial dilution
# [13] = E. coli BL21, 10 h cultivation at 37° C.
substance,measurement,setting,value
PRT1075 (EVNKCSRCLEGACVVNKQSGDVTCNCTDGRVAPSCL; listed as Homo sapiens),MIC,[1],25 µg/mL
same,MIC E. coli BL21,[2]; [12],12.5 µg/mL
same,MIC P. aeruginosa,[3]; [12],25 µg/mL
same,MIC K. pneumonia,[4]; [12],50 µg/mL
same,MIC E. cloacae,[5]; [12],25 µg/mL
same,MIC A. hydrophila,[6]; [12],25 µg/mL
same,MIC C. diversus,[7]; [12],50 µg/mL
same,MIC M. catarrhalis,[8]; [12],25 µg/mL
same,MIC P. mirabilis,[9]; [12],50 µg/mL
same,MIC P. vulgaris,[10]; [12],12.5 µg/mL
same,MIC S. marcescens,[11]; [12],50 µg/mL
PRT493 (CDCPHTQNTCDPETGECVCPPHTQGVKCEECEDGHWGYDAEVGCQA; listed as Homo sapiens),MIC,[1],12.5 µg/mL
same,MIC against E. coli BL21,"[2]; 96-well plate, 37° C., 10 h",50 µg/mL
same,MIC against P. aeruginosa,"[3]; 96-well plate, 37° C., 10 h",12.5 µg/mL
same,MIC against K. pneumonia,"[4]; 96-well plate, 37° C., 10 h",50 µg/mL
same,MIC against E. cloacae,"[5]; 96-well plate, 37° C., 10 h",25 µg/mL
same,MIC against A. hydrophila,"[6]; 96-well plate, 37° C., 10 h",12.5 µg/mL
same,MIC against C. diversus,"[7]; 96-well plate, 37° C., 10 h",25 µg/mL
same,MIC against M. catarrhalis,"[8]; 96-well plate, 37° C., 10 h",50 µg/mL
same,MIC against P. mirabilis,"[9]; 96-well plate, 37° C., 10 h",25 µg/mL
same,MIC against P. vulgaris,"[10]; 96-well plate, 37° C., 10 h",12.5 µg/mL
same,MIC against S. marcescens,"[11]; 96-well plate, 37° C., 10 h",25 µg/mL
PRT662 (RIYFCQIPCLNGGRCIGRDECWCPANSTGKFCH; listed as Homo sapiens),MIC,[1],25 µg/mL
same,MIC E. coli BL21,"[2]; 96-well plate, 37° C., 10 h",12.5 µg/mL
same,MIC P. aeruginosa,"[3]; 96-well plate, 37° C., 10 h",25 µg/mL
same,MIC K. pneumonia,"[4]; 96-well plate, 37° C., 10 h",50 µg/mL
same,MIC E. cloacae,"[5]; 96-well plate, 37° C., 10 h",25 µg/mL
same,MIC A. hydrophila,"[6]; 96-well plate, 37° C., 10 h",12.5 µg/mL
same,MIC C. diversus,"[7]; 96-well plate, 37° C., 10 h",25 µg/mL
same,MIC M. catarrhalis,"[8]; 96-well plate, 37° C., 10 h",25 µg/mL
same,MIC P. mirabilis,"[9]; 96-well plate, 37° C., 10 h",50 µg/mL
same,MIC P. vulgaris,"[10]; 96-well plate, 37° C., 10 h",12.5 µg/mL
same,MIC S. marcescens,"[11]; 96-well plate, 37° C., 10 h",50 µg/mL
PRT422 (DVDECALGTHNCSEAETCHNIQGSFRCLRFECPPNYVQVSKTKCE; listed as Homo sapiens),MIC,[1],12.5 µg/mL
same,MIC,[2]; [13],25 µg/mL
same,MIC,[3]; 10 h cultivation at 37° C.,12.5 µg/mL
same,MIC,[4]; 10 h cultivation at 37° C.,25 µg/mL
same,MIC,[5]; 10 h cultivation at 37° C.,12.5 µg/mL
same,MIC,[6]; 10 h cultivation at 37° C.,25 µg/mL
same,MIC,[7]; 10 h cultivation at 37° C.,12.5 µg/mL
same,MIC,[8]; 10 h cultivation at 37° C.,12.5 µg/mL
same,MIC,[9]; 10 h cultivation at 37° C.,25 µg/mL
same,MIC,[10]; 10 h cultivation at 37° C.,12.5 µg/mL
same,MIC,[11]; 10 h cultivation at 37° C.,25 µg/mL
PRT1137 (ESNECKMNPCKNNSTCTDLYKSYRCECTSGWTGQNCS; listed as Homo sapiens),MIC,[1],25 µg/mL
same,MIC E. coli BL21,[2]; [12],50 µg/mL
same,MIC P. aeruginosa,[3]; [12],25 µg/mL
same,MIC K. pneumonia,[4]; [12],12.5 µg/mL
same,MIC E. cloacae,[5]; [12],25 µg/mL
same,MIC A. hydrophila,[6]; [12],50 µg/mL
same,MIC C. diversus,[7]; [12],12.5 µg/mL
same,MIC M. catarrhalis,[8]; [12],50 µg/mL
same,MIC P. mirabilis,[9]; [12],12.5 µg/mL
same,MIC P. vulgaris,[10]; [12],50 µg/mL
same,MIC S. marcescens,[11]; [12],12.5 µg/mL
PRT318 (DVDECEKNPCAGGECINNQGSYTCQCRAGYQSTLTRTECR; listed as Homo sapiens),MIC,[1],12.5 µg/mL
same,MIC,[2]; [13],12.5 µg/mL
same,MIC,[3]; 10 h cultivation at 37° C.,12.5 µg/mL
same,MIC,[4]; 10 h cultivation at 37° C.,50 µg/mL
same,MIC,[5]; 10 h cultivation at 37° C.,12.5 µg/mL
same,MIC,[6]; 10 h cultivation at 37° C.,50 µg/mL
same,MIC,[7]; 10 h cultivation at 37° C.,12.5 µg/mL
same,MIC,[8]; 10 h cultivation at 37° C.,50 µg/mL
same,MIC,[9]; 10 h cultivation at 37° C.,12.5 µg/mL
same,MIC,[10]; 10 h cultivation at 37° C.,25 µg/mL
same,MIC,[11]; 10 h cultivation at 37° C.,50 µg/mL
PRT1249 (NQCACNSSPCEQQSGRCQCRERTFGARCD; listed as Homo sapiens),MIC,[1],12.5 µg/mL
same,MIC against E. coli BL21,"[2]; E. coli BL21, 96-well plate, 37° C., 10 h",12.5 µg/mL
same,MIC against P. aeruginosa,"[3]; Pseudomonas aeruginosa, 96-well plate, 37° C., 10 h",50 µg/mL
same,MIC against K. pneumonia,"[4]; Klebsiella pneumonia, 96-well plate, 37° C., 10 h",12.5 µg/mL
same,MIC against E. cloacae,"[5]; Enterobacter cloacae, 96-well plate, 37° C., 10 h",50 µg/mL
same,MIC against A. hydrophila,"[6]; Aeromonas hydrophila, 96-well plate, 37° C., 10 h",12.5 µg/mL
same,MIC against C. diversus,"[7]; Citrobacter diversus, 96-well plate, 37° C., 10 h",50 µg/mL
same,MIC against M. catarrhalis,"[8]; Moraxella catarrhalis, 96-well plate, 37° C., 10 h",12.5 µg/mL
same,MIC against P. mirabilis,"[9]; Proteus mirabilis, 96-well plate, 37° C., 10 h",25 µg/mL
same,MIC against P. vulgaris,"[10]; Proteus vulgaris, 96-well plate, 37° C., 10 h",50 µg/mL
same,MIC against S. marcescens,"[11]; Serratia marcescens, 96-well plate, 37° C., 10 h",25 µg/mL
